Assay results reported in patent US20210255184A1, “Biosensor Device and Methods” (The New Zealand Institute for Plant and Food Research …, priority 2018, published 2021).

Experiments:
Orco [1] = biological target: T1, Orco (Drosophila melanogaster, UniProt Q9VNB5); assay: EIS sensor, Orco liposomes (specificity control); assay type: biochemical; settings: Orco only liposomes
T1 construct: his-tag; made in house; host or cells: baculovirus-infected Sf9 cells
T1 sequence (Q9VNB5 1-486): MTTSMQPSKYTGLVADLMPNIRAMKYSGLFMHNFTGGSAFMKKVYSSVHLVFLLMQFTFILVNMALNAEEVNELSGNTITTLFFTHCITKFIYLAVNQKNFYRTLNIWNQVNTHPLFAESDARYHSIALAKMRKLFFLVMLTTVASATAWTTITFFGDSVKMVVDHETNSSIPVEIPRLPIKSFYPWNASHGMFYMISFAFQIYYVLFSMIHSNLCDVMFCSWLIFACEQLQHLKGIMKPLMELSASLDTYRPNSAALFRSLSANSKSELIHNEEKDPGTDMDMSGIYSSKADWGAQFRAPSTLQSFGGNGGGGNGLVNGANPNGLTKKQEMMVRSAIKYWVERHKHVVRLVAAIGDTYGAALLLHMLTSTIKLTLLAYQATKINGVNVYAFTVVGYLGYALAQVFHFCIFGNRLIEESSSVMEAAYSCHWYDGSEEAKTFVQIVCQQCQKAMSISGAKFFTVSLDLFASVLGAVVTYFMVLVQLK
Method: Prior to their use, liposomes were defrosted on ice and then destabilized by incubating with 0.2% CHAPS for 15 min at room temperature. Then 200 μg of purified odorant receptor^28 was added to 1 mg of liposomes and rotated at 10 rpm for 1 h at room temperature. Excess detergent was removed by four additions of 25 mg of Bio-Beads SM-2 (Bio-Rad, USA) and incubation at 4° C. for 30 min, 2 h, overnight and a further 2 h respectively. The Bio-Beads were removed after each incubation period. The OrX or OrX/Orco integrated liposomes were pelleted by centrifugation at 100,000 g for 1 h, and were resuspended in 500 μL of rehydration buffer. Integration of OrXs and Orco into liposomes was assessed by density gradient ultracentrifugation (DGU) using Accudenz (Accurate Chemical & Scientific Corporation, USA). The integrated liposomes were brought to 40% Accudenz by the addition of an equal volume of 80% Accudenz solution, placed at the bottom of an ultra-centrifugation tube, and overlaid with 30% Accudenz solution, and DGU buffer (25 mM HEPES pH 7.5, 100 mM NaCl, 10% glycerol). The sample was then centrifuged at 100,000 g for 4 h at 4° C. […]
PBS solution was prepared by immersing one tablet of PBS in 200 ml of milli-Q water (according to manufacturers instructions) and filtered using 0.2-μm syringe filter. The pH of the prepared buffer solution was measured with a pH meter. […]

Orco [2] = biological target: T1, Orco; assay: GFET sensor, Orco liposomes (control); assay type: biochemical; settings: Orco only liposomes
Method: The OR liposomes were functionalised onto the graphene surface via a non-covalent route using PBASE as the molecular linker as shown in FIG. 13. The OR liposomes were diluted at 1:10 ratio with 1×PBS (pH7.4). The cleaned GFETs were immersed in 1 mM PBASE solution in methanol for 1 hour. The devices were washed three times in methanol and subsequently washed three times in 1×PBS to remove the excess PBASE and residual methanol in the channel respectively. The OR liposomes were diluted 1:10 with 1×PBS (pH 7.4) and 100 μL of the OR dilution was placed in the graphene channel and incubated at room temperature for one hour in a closed petri dish. After OR liposome functionalization, the devices were washed in 1×PBS for 10 s before measurements.
The OR liposome immobilised GFET device with a PDMS well mounted on it was placed onto the probe station and the source and drain connections were made by micromanipulators. 100 μl of PBS containing 1% dimethyl sulfoxide (DMSO) was added to the well and the Ag/AgCl standard electrode was placed into the buffer. The stock solution of ligands at 100 mM concentrations were prepared by dissolving them in DMSO as they are not stable in aqueous buffer. The stock solution was stored at 4° C. The ligand solution for sensing was prepared by diluting the stock solution in 1×PBS buffer containing 1% DMSO to set concentrations from 10 fM to 100 pM. […]

| SMILES | sensor response to ligand (Orco [1]) | sensor response to target ligand (Orco [2]) |
| --- | --- | --- |
| CCCCCC(=O)OC [methyl hexanoate] | negligible response | lack of response |
| COC(=O)c1ccccc1O [methyl salicylate] | negligible response | lack of response |
